According to patent US20160202206A1, “Matrix-Enhanced Electrochemical Detector for Pathogenic Bacteria” (NORTHEASTERN UNIVERSITY, priority 2013, published 2016):
Like-named read-outs stand apart in the source and are kept apart here.

Columns and labels:
[1] = system: P. aeruginosa cultures; conditions: cited from earlier work
[2] = system: P. aeruginosa strain PA14; assay type: cell-based, Pseudomonas aeruginosa; conditions: for time to appearance of a pyocyanin signal: M63 minimal media, versus no added amino acid (nearly 24 hours); for effect on pyocyanin production: M63 minimal media or TSB, single amino acid added (tyrosine 3.2 mM, valine 17.6 mM); for up-regulatory effect on pyocyanin production compared with the other amino acids tested: six amino acids tested, M63 minimal media and TSB, scans over 24 hours
Procedure: All bacterial tests were completed using wild-type P. aeruginosa strain PA14. Cell cultures were routinely grown in trypticase soy broth (TSB) (BD Biosciences 211768) at 37° C. and later stored on TSB agar plates at 4° C. when not in use. All amino acids were purchased from Sigma-Aldrich (St. Louis, Mo.) and dissolved in solution using either TSB or M63 minimal salts medium (Fisher Cat. 50-751-6740) [(NH4)2SO4 (15 mM), KH2PO4 (100 mM)] supplemented with MgSO4 (1 mM) and glycerol (0.027 mM). Electrochemical measurements were performed using commercially available Zensor TE100 (EDAQ ET077) screenprinted electrodes featuring carbon working and counter electrodes. Although the Zensor TE100 electrodes include a silver paste reference, a separate 1 M KCl Ag/AgCl reference electrode (CHI111) was employed to minimize the chances of drift in reference potential during measurements lasting several hours, which can occur when the reference electrode is in direct contact with the sample solution. All electrochemical measurements were recorded using a potentiostat (CHI842C, CH Instruments).
Individual amino acids were dissolved at specific concentrations in either 10 mL of TSB or M63 media. Each solution was inoculated with a specific concentration of P. aeruginosa and incubated at 37 C. […] of each solution was removed at designated time points and loaded onto a Zensor electrode for electrochemical testing. Square-wave voltammetric scans were performed at potentials ranging from −0.4 to −0.1 V at an amplitude voltage of 0.050 V and a frequency of 15 Hz. Scans were performed for each sample three times with three replicates for each tested condition. The data was analyzed using OriginPro 9.1 (OriginLab Corporation). Baselines were created for each data set using spline interpolation with 8 base points. The resulting baseline-subtracted data set was used to determine the max currents observed from pyocyanin production.
Liquid cultures of P. aeruginosa were grown in either M63 minimal media or TSB to observe the effect of amino acid addition on the bacteria's production of pyocyanin using the methods described in Example 2. 10 μL of stock PA14 culture was loaded into 10 mL liquid cultures each containing one of six different amino acids (final concentration of 4 million cells per mL). […] Electrochemical scans were taken roughly every two hours over the course of a 24-hour period.
Tyrosine and valine were prepared at concentrations ranging from those quantified in typical cystic fibrosis infection levels (tyrosine: 0.2 mM, valine: 1.1 mM) to an 80-fold increase, which reached the solubility limit of the amino acids in TSB. The initial concentration of P. aeruginosa loaded in each sample was kept constant at roughly 4 million cells per mL and electrochemical scans were taken every two hours over the course of ten hours. FIGS. 11 A and B show scans taken after eight hours of growth in addition to a control with no amino acid additives. Again, consistent among all scans was the observance of a pyocyanin peak around −0.25 V vs. a Ag/AgCl reference. […] It is possible that valine has an inhibitory effect on pyocyanin production at such high concentrations. While such inhibition has been observed for other molecules (D. J. Musk, D. A. Banko and P. J. Hergenrother, Chem. Biol., 2005, 12, 789-796), P. aeruginosa has not been previously studied at valine concentrations that are over 100 times greater than what is typically found in a pseudomonal infection.
The next set of tests studied how varying the initial P. aeruginosa cell concentration would affect the production of pyocyanin in the presence of amino acids. TSB media was used as the growth media to which tyrosine and valine were added. Tyrosine (16 mM) and valine (17.6 mM) concentrations were held constant while varying amounts of P. aeruginosa were added into the samples (4, 20, 40, 400 million cells per mL). […]

Compound | effect on biofilm formation [1] | time to appearance of a pyocyanin signal [2] | effect on pyocyanin production ([2]; 4 million cells per mL) | effect of varying amino acid concentration on amounts of pyocyanin produced after the critical time point ([2]; TSB, 4 million cells per mL) | effect of varying amino acid concentration on time needed for cells to up-regulate pyocyanin production ([2]; TSB, 4 million cells per mL) | rate of pyocyanin production, 16 mM tyrosine compared with 17.6 mM valine ([2]; TSB, 4 million cells per mL) | up-regulatory effect on pyocyanin production compared with the other amino acids tested [2] | further results
N[C@@H](Cc1c[nH]cn1)C(=O)O [histidine] | up-regulate biofilm formation | significantly less time |  |  |  |  |  | 
CC(C)C[C@H](N)C(=O)O [leucine] | up-regulate biofilm formation |  |  |  |  |  |  | 
N[C@@H](Cc1ccc(O)cc1)C(=O)O [tyrosine] | up-regulate biofilm formation | significantly less time | up-regulatory effect | significant effect | minimal effect | nearly identical | greatest up-regulatory effect in both media | time of statistically significant increase in current output ([2]; TSB, 16 mM tyrosine, 400 million cells per mL, FIG. 14 A): between four and six hours; time of statistically significant increase in current output ([2]; TSB, 4 million cells per mL, FIG. 12 A): between six and eight hours; pyocyanin produced, 16 mM tyrosine versus 17.6 mM valine ([2]; TSB, initial cell concentrations above 4 million cells per mL): more pyocyanin than 17.6 mM valine; up-regulatory effect on pyocyanin production compared with the other amino acids tested ([2]; listed as Tyrosine): largest up-regulatory effect of the six amino acids tested
O=C(O)[C@@H]1CCCN1 [proline] | up-regulate biofilm formation |  |  |  |  |  |  | 
CC(C)[C@H](N)C(=O)O [valine] | up-regulate biofilm formation |  | up-regulatory effect | significant effect | minimal effect | nearly identical | largest up-regulatory effect of the six amino acids tested | pyocyanin production when concentration raised to 88 mM ([2]; TSB, 88 mM versus 17.6 mM valine): decreased; amino acid concentration giving the largest pyocyanin concentration ([2]; TSB, 4 million cells per mL, eight hours of growth): 17.6 mM
N=C(N)NCCC[C@H](N)C(=O)O [arginine] | up-regulate biofilm formation |  |  |  |  |  |  | 
